This passage reports IC50 and EC50 results from US9969716B2, “Indole derivatives as modulators of methyl modifying enzymes, compositions and uses thereof” (Constellation Pharmaceuticals, Inc., priority 2013, dated 2018).

The target in one experiment is Y641N EZH2 (Homo sapiens, UniProt Q15910, Y641N). The experiment in a line: Y641N EZH2 assay (as EZH2 assay, H3K27Me2 oligonucleosomes as substrate). It counts as biochemical. The procedure:
EZH2 Assay: Assays were carried out by mixing rPRC2 together with biotinylated oligonucleosome substrates in the presence of the radio-labeled enzyme co-factor, S-adenosyl-L-methionine (^3H SAM) (Perkin Elmer) and monitoring the enzymatically mediated transfer of tritiated methyl groups from ^3H SAM to histone lysine residues. The amount of resulting tritiated methyl histone product was measured by first capturing the biotinylated oligonucleosomes in streptavidin (SAV) coated FlashPlates (Perkin Elmer), followed by a wash step to remove un-reacted ^3H SAM, and then counting on a TopCount NXT 384 well plate scintillation counter (Perkin Elmer). The final assay conditions for EZH2 were as follows: 50 mM Tris Buffer pH 8.5, 1 mM DTT, 69 μM Brij-35 detergent, 5.0 mM MgCl2, 0.1 mg/mL BSA, 0.2 μM ^3H SAM, 0.2 μM biotinylated oligonucleosomes, 3.6 μM H3K27me3 peptide and 2 nM EZH2.
A 12.5 μL volume of the HMT enzyme, H3K27me3 peptide and oligonucleosome substrate in assay buffer was added to each well of the assay plate using a Multidrop Combi (ThermoFisher). Compounds were pre-incubated with the enzyme for 20 min, followed by initiation of the methyltransferase reaction by addition of 12.5 μL of ^3H SAM in assay buffer (final volume=25 μL). The final concentrations of compounds ranged from a top default concentration of 80 μM down to 0.16 μM in ten 2-fold dilution steps. Reactions were carried out for 60 minutes and quenched with 20 μL per well of 1.96 mM SAH, 50 mM Tris pH 8.5, 200 mM EDTA. Stopped reactions were transferred to SAV coated Flashplates (Perkin Elmer), incubated for 120 min, washed with a plate washer, and then read on the TopCount NXT (1.0 min/well) to measure the amount of methyl histone product formed during the reaction.

Experiment [1] has as its system H3K27me3 mark in HeLa cells. The experiment in a line: H3K27me3 Alpha Hela Assay (AlphaLISA). It counts as cell-based. The following applies: Homo sapiens, 72 hrs, read-out: EZH2_Cell_H3K27me3_Alpha_HeLa (EC50_K27me3). The method in brief: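 Ten-dose 3-fold series on HeLa cells (1,000/well, 10% DMEM), 72 hrs at 37° C. Lysis, histone extraction, then AlphaLISA with anti-K27me3 acceptor beads, biotinylated anti-H3 C-ter antibody (3 nM final) and streptavidin donor beads (20 μg/mL final); duplicate plate used for viability. DMSO-normalized dose-response curves fitted.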
On the technique in general: Bead proximity is the source of the signal in Alpha formats.

The target of the next experiment is EZH2 (Homo sapiens, UniProt Q15910). As to the kind of experiment: EZH2 assay (rPRC2, 3H SAM methyl transfer to biotinylated oligonucleosomes, FlashPlate). It counts as biochemical. The method in brief: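 rPRC2 (2 nM EZH2) with 0.2 μM biotinylated oligonucleosomes, 3.6 μM H3K27me3 peptide, 0.2 μM 3H SAM in pH 8.5 Tris buffer; compounds (80 to 0.16 μM) preincubated 20 min, reaction 60 min, SAH/EDTA quench. Methylated product captured on streptavidin FlashPlates, scintillation counted.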
Sequence of EZH2 (Q15910 whole entry): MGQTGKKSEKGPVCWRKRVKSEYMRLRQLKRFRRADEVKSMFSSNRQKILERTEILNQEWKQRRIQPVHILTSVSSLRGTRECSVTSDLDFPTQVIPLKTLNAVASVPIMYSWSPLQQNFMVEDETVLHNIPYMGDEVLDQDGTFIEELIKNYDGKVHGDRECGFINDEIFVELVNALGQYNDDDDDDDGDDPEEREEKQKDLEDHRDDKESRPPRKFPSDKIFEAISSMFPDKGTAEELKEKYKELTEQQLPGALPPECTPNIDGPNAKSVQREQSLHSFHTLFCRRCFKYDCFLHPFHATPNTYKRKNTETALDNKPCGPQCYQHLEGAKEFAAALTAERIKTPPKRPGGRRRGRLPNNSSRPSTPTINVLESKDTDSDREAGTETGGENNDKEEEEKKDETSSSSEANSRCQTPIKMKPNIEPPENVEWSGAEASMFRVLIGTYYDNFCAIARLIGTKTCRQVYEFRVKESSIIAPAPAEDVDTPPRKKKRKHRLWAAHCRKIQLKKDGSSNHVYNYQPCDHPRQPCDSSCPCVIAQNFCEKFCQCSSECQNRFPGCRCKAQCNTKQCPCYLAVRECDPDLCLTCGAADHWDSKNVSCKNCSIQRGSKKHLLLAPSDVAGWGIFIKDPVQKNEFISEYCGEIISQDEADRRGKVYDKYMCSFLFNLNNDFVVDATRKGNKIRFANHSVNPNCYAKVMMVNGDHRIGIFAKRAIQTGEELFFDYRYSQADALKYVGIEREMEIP
Sequence of EZH2 (O75530 whole entry partner): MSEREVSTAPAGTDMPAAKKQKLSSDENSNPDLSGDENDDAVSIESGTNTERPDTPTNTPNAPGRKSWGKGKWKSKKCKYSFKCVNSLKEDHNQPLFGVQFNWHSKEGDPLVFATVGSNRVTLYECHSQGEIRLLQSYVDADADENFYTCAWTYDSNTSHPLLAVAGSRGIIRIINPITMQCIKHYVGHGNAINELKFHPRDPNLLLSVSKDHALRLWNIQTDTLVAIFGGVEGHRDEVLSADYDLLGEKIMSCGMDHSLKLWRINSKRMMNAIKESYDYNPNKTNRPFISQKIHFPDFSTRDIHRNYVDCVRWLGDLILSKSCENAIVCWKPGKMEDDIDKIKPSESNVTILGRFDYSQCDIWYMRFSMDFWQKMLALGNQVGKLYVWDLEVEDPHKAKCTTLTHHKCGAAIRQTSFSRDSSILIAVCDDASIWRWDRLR
Sequence of EZH2 (Q15022 whole entry partner): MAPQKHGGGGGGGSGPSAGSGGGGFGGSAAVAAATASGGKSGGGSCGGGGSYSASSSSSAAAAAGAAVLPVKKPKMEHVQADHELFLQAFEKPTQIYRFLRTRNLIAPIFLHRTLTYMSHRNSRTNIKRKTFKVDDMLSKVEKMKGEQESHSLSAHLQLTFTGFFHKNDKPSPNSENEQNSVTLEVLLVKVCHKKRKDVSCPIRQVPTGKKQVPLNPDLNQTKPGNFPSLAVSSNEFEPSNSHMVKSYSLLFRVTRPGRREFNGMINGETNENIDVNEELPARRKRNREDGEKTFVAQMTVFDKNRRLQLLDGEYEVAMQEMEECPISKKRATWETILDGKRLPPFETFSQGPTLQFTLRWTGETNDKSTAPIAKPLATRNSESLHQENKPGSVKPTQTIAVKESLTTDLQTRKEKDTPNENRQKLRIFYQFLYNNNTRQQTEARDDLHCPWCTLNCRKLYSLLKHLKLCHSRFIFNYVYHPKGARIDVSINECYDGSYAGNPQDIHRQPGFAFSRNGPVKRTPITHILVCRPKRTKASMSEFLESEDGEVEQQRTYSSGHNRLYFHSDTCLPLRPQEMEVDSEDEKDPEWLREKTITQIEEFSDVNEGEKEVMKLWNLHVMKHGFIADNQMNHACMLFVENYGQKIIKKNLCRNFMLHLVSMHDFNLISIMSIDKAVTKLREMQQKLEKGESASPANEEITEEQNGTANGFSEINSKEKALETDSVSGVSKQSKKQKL

Sequence of Y641N EZH2 (Q15910 whole entry Y641N): as the sequence (Q15910 whole entry) above, with Y641N counted along it
Sequence of Y641N EZH2 (O75530 whole entry partner): as the sequence (O75530 whole entry partner) above
Sequence of Y641N EZH2 (Q15022 whole entry partner): as the sequence (Q15022 whole entry partner) above

Regarding `COc1cc(C)[nH]c(=O)c1CNC(=O)c1c(C)n([C@H](C)C2CCN(S(=O)(=O)C3CC3)CC2)c2ccccc12` [Compound 117, (R)-1-(1-(1-(cyclopropylsulfonyl)piperidin-4-yl)ethyl)-N-((4-methoxy-6-methyl-2-oxo-1,2-dihydropyridin-3-yl)methyl)-2-methyl-1H-indole-3-carboxamide], the IC50 against Y641N EZH2 and at EZH2 was less than 100 nM each time. Besides, in experiment [1], the EC50 is less than 400 nM.

Regarding `COc1cc(C)[nH]c(=O)c1CNC(=O)c1c(C)n([C@H](C)C2CCN(CC3(F)CCC3)CC2)c2ccccc12` [Compound 118], the IC50 at Y641N EZH2 and against EZH2 was less than 100 nM each time. Moreover, the EC50 in experiment [1] was less than 400 nM.

Regarding `COc1cc(C)[nH]c(=O)c1CNC(=O)c1c(C)n([C@H](C)C2CCN(CC3(F)CC3)CC2)c2ccccc12` [Compound 119], the IC50 against Y641N EZH2 and against EZH2 was less than 100 nM in each case. Besides, the EC50 in experiment [1] is less than 400 nM.

In the case of `COc1cc(C)[nH]c(=O)c1CNC(=O)c1c(C)n([C@H](C)C2CCN(c3ncc(F)cn3)CC2)c2ccccc12` [Compound 120], the IC50 against Y641N EZH2 and against EZH2 was less than 100 nM each time. For the same compound, in experiment [1], the EC50 is less than 400 nM.

In the case of `COc1cc(C)[nH]c(=O)c1CNC(=O)c1c(C)n([C@H](C)C2CCN(C[C@H](OC)C(F)(F)F)CC2)c2ccccc12` [Compound 121], the IC50 on Y641N EZH2 and against EZH2 was less than 100 nM each time. For the same compound, the EC50 in experiment [1] was less than 400 nM.

With `COc1cc(C)[nH]c(=O)c1CNC(=O)c1c(C)n([C@H](C)C2CCN(Cc3ccc(F)cc3)CC2)c2ccccc12` [Compound 122], the IC50 on Y641N EZH2 and at EZH2 was less than 100 nM each time. Besides, the EC50 in experiment [1] was less than 400 nM.

Consider `CCS(=O)(=O)N1CCC([C@@H](C)n2c(C)c(C(=O)NCc3c(NC)cc(C)[nH]c3=O)c3ccccc32)CC1` [Compound 123], for which the IC50 on Y641N EZH2 and against EZH2 was less than 100 nM throughout. For the same compound, in experiment [1], the EC50 was less than 400 nM.

Consider `COc1cc(C)[nH]c(=O)c1CNC(=O)c1c(C)n([C@H](C)C2CCN(c3ncc(Br)cn3)CC2)c2ccccc12` [Compound 124, (R)-1-(1-(1-(5-bromopyrimidin-2-yl)piperidin-4-yl)ethyl)-N-((4-methoxy-6-methyl-2-oxo-1,2-dihydropyridin-3-yl)methyl)-2-methyl-1H-indole-3-carboxamide], for which the IC50 against Y641N EZH2 and against EZH2 was less than 100 nM in each case. Also, in experiment [1], the EC50 is less than 400 nM.

For the compound `COc1cc(C)[nH]c(=O)c1CNC(=O)c1c(C)n([C@H](C)C2CCN(c3cccnc3)CC2)c2ccccc12` [Compound 125], the IC50 on Y641N EZH2 and at EZH2 was less than 100 nM throughout. The EC50 in experiment [1] was less than 400 nM.

`Cc1cc(Cl)c(CNC(=O)c2c(C)n([C@H](C)C3CCN(CCF)CC3)c3ccccc23)c(=O)[nH]1` [Compound 126]: the IC50 against Y641N EZH2 and against EZH2 was less than 100 nM throughout. In experiment [1], the EC50 was less than 400 nM.

For `COc1cc(C)[nH]c(=O)c1CNC(=O)c1c(C)n([C@H](C)C2CCN(C(=O)C(C)(C)C)CC2)c2ccccc12` [Compound 129], the IC50 at Y641N EZH2 and against EZH2 was less than 100 nM throughout. The EC50 in experiment [1] is less than 400 nM.

As for `COc1cc(C)[nH]c(=O)c1CNC(=O)c1c(C)n([C@H](C)C2CCN(c3ncc(Cl)cn3)CC2)c2ccccc12` [Compound 130], the IC50 against Y641N EZH2 and at EZH2 was less than 100 nM throughout. In addition, the EC50 in experiment [1] is less than 400 nM.

With `COc1cc(C)[nH]c(=O)c1CNC(=O)c1c(C)n([C@H](C)C2CCN(c3ccc(F)cn3)CC2)c2ccccc12` [Compound 131], the IC50 against Y641N EZH2 and against EZH2 was less than 100 nM in each case. Besides, in experiment [1], the EC50 is less than 400 nM.

`COc1cc(C)[nH]c(=O)c1CNC(=O)c1c(C)n([C@H](C)C2CCN(c3ccc(C)nc3)CC2)c2ccccc12` [Compound 133]: the IC50 against Y641N EZH2 and against EZH2 was less than 100 nM throughout. For the same compound, the EC50 in experiment [1] was less than 400 nM.

For the compound `Cc1cc(C)c(CNC(=O)c2c(C)n([C@H](C)C3CCN(S(=O)(=O)CCN4CCOCC4)CC3)c3ccccc23)c(=O)[nH]1` [Compound 134], the IC50 at Y641N EZH2 and against EZH2 was less than 100 nM in each case. The EC50 in experiment [1] is less than 400 nM.

With `COc1cc(C)[nH]c(=O)c1CNC(=O)c1c(C)n([C@H](C)C2CCN(CC(C)(C)C(F)(F)F)CC2)c2ccccc12` [Compound 136], the IC50 at Y641N EZH2 and against EZH2 was 100 to 1000 nM in each case. Besides, the EC50 in experiment [1] was less than 400 nM.

`COc1cc(C)[nH]c(=O)c1CNC(=O)c1c(C)n([C@H](C)C2CCN(S(=O)(=O)c3ccc(F)cc3)CC2)c2ccccc12` [Compound 137]: the IC50 against Y641N EZH2 and on EZH2 was less than 100 nM each time. The EC50 in experiment [1] was less than 400 nM.

`COc1cc(C)[nH]c(=O)c1CNC(=O)c1c(C)n([C@H](C)C2CCN(S(=O)(=O)c3ccccc3)CC2)c2ccccc12` [Compound 138]: the IC50 on Y641N EZH2 and on EZH2 was less than 100 nM each time. In experiment [1], the EC50 was less than 400 nM.

Take `Cc1cc(C)c(CNC(=O)c2c(C)n([C@H](C)C3CCN(S(=O)(=O)C4CCN(C)CC4)CC3)c3ccccc23)c(=O)[nH]1` [Compound 139]: the IC50 at Y641N EZH2 and at EZH2 was less than 100 nM in each case. In addition, in experiment [1], the EC50 was less than 400 nM.

Regarding `COCCOCCOC(=O)N1CCC([C@@H](C)n2c(C)c(C(=O)NCc3c(OC)cc(C)[nH]c3=O)c3ccccc32)CC1` [Compound 140], the IC50 at Y641N EZH2 and on EZH2 was less than 100 nM each time. Also, in experiment [1], the EC50 was less than 400 nM.

Regarding `COc1cc(C)[nH]c(=O)c1CNC(=O)c1c(C)n([C@H](C)C2CCN(c3ccc(F)cc3)CC2)c2ccccc12` [Compound 141], the concentration for half-maximal inhibition (IC50) against Y641N EZH2 and on EZH2 was less than 100 nM each time. The EC50 in experiment [1] was less than 400 nM.

Regarding `Cc1cc(Cl)c(CNC(=O)c2c(C)n([C@H](C)C3CCN(CC(C)(C)O)CC3)c3ccccc23)c(=O)[nH]1` [Compound 142], the IC50 at Y641N EZH2 and at EZH2 was less than 100 nM in each case. In experiment [1], the EC50 is less than 400 nM.

Regarding `Cc1cc(OC(F)F)c(CNC(=O)c2c(C)n([C@H](C)C3CCN(CCC(F)(F)F)CC3)c3ccccc23)c(=O)[nH]1` [Compound 143], the IC50 against Y641N EZH2 and on EZH2 was less than 100 nM throughout. In addition, the EC50 in experiment [1] is less than 400 nM.

Consider `Cc1cc(C)c(CNC(=O)c2c(C)n([C@H](C)C3CCN(c4cccc(CN5CCOCC5)c4)CC3)c3ccccc23)c(=O)[nH]1` [Compound 144], for which the IC50 against Y641N EZH2 and against EZH2 was less than 100 nM each time. The EC50 in experiment [1] was 400 to 2000 nM.

Take `COc1cc(C)[nH]c(=O)c1CNC(=O)c1c(C)n([C@H](C)C2CCN(CC3CC3)CC2)c2ccccc12` [Compound 145]: the IC50 on Y641N EZH2 and against EZH2 was less than 100 nM throughout. For the same compound, the EC50 in experiment [1] fell in the range of 400 to 2000 nM.

`CNc1cc(C)[nH]c(=O)c1CNC(=O)c1c(C)n([C@H](C)C2CCN(c3ncc(F)cn3)CC2)c2ccccc12` [Compound 146]: the IC50 against Y641N EZH2 and at EZH2 was less than 100 nM each time. Moreover, in experiment [1], the EC50 lay within 400 to 2000 nM.

As for `Cc1cc(C)c(CNC(=O)c2c(C)n([C@H](C)C3CCN(S(=O)(=O)C4CN(C)C4)CC3)c3ccccc23)c(=O)[nH]1` [Compound 147], the IC50 at Y641N EZH2 and on EZH2 was less than 100 nM in each case. In addition, in experiment [1], the EC50 was 400 to 2000 nM.

Regarding `COc1cc(C)[nH]c(=O)c1CNC(=O)c1c(C)n([C@H](C)C2CCN(Cc3ccccn3)CC2)c2ccccc12` [Compound 148], the IC50 against Y641N EZH2 and on EZH2 was less than 100 nM each time. In addition, in experiment [1], the EC50 is 400 to 2000 nM.

With `COc1cc(C)[nH]c(=O)c1CNC(=O)c1c(C)n([C@H](C)C2CCN(c3cnccn3)CC2)c2ccccc12` [Compound 149], the IC50 on Y641N EZH2 and on EZH2 was less than 100 nM in each case. In addition, in experiment [1], the EC50 is 400 to 2000 nM.

For `COc1cc(C)[nH]c(=O)c1CNC(=O)c1c(C)n([C@H](C)C2CCN(Cc3c(F)cccc3F)CC2)c2ccccc12` [Compound 150], the IC50 against Y641N EZH2 and at EZH2 was less than 100 nM each time. The EC50 in experiment [1] lay in the range of 400 to 2000 nM.

As to `CCc1cc(C)[nH]c(=O)c1CNC(=O)c1c(C)n([C@H](C)C2CCN(CCC(F)(F)F)CC2)c2ccccc12` [Compound 151], the IC50 at Y641N EZH2 and against EZH2 was less than 100 nM each time. For the same compound, the EC50 in experiment [1] lay within 400 to 2000 nM.

The IC50 is the midpoint of a concentration-inhibition curve. A low value points to higher potency.
